# Data from the supplement of paper PMC10331698.
# ± gives the standard deviation of the averaged measurements.
# Columns and labels:
# Experiment in all cases: LOEC (log10 uM (lowest observed effect concentration))
# [1] = compound: OCCC(F)(F)C(F)(F)C(F)(F)C(F)(F)C(F)(F)C(F)(F)C(F)(F)C(F)(F)F [8:2 Fluorotelomer alcohol]
# Experimental: (§1)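 BioMAP Diversity Plus panel in human primary cell co-cultures, 4 concentrations in duplicate blinded samples. Responses are log10 fold change versus DMSO control, processed with tcpl v2.1.0. A hit is called when responses at any concentration exceed the cutoff (the larger of 3*bmad or log10(1.2)); the lowest observed effect concentration (modl_ga, log10 uM) is reported for hits.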
# [2] = compound: FC(F)(I)C(F)(F)C(F)(F)C(F)(F)C(F)(F)C(F)(F)I [1,6-Diiodoperfluorohexane]
# Experimental: as §1
# [3] = compound: O=C(CC(=O)C(F)(F)C(F)(F)C(F)(F)F)c1cccs1 [(Perfluorobutyryl)-2-thenoylmethane]
# Experimental: as §1
# Perfluoropinacol = compound: OC(C(F)(F)F)(C(F)(F)F)C(O)(C(F)(F)F)C(F)(F)F [Perfluoropinacol]
# Experimental: as §1
# [4] = compound: OCC(F)(F)C(F)(F)C(F)(F)C(F)(F)C(F)(F)C(F)(F)C(F)(F)C(F)(F)CO [1H,1H,10H,10H-Perfluorodecane-1,10-diol]
# Experimental: as §1
# [5] = compound: OCCCC(F)(F)C(F)(F)C(F)(F)C(F)(F)C(F)(F)C(F)(F)C(F)(F)C(F)(F)F [3-(Perfluorooctyl)propanol]
# Experimental: as §1
# [6] = compound: OCC(F)(F)C(F)(F)C(F)(F)C(F)(F)C(F)(F)C(F)(F)C(F)(F)C(F)(F)C(F)(F)C(F)(F)C(F)(F)F [11:1 Fluorotelomer alcohol]
# Experimental: as §1
# [7] = compound: C=CC(=O)OCC(F)(F)C(F)(F)C(F)(F)C(F)(F)C(F)(F)C(F)(F)C(F)(F)C(F)F [1H,1H,9H-Perfluorononyl acrylate]
# Experimental: as §1
# [8] = compound: C=CC(=O)OCC(F)(F)C(F)(F)C(F)(F)C(F)(F)COC(=O)C=C [1H,1H,6H,6H-Perfluorohexane-1,6-diol diacrylate]
# Experimental: as §1
# [9] = compound: Cc1ccc(S(=O)(=O)OCC(F)(F)C(F)(F)C(F)(F)C(F)(F)C(F)(F)C(F)F)cc1 [1H,1H,7H-Perfluoroheptyl 4-methylbenzenesulfonate]
# Experimental: as §1
# [10] = compound: FC(F)(F)C(F)(F)C(F)(F)C(F)(F)CCI [1H,1H,2H,2H-Perfluorohexyl iodide]
# Experimental: as §1
# [11] = compound: OCC(F)(F)C(F)(F)C(F)(F)C(F)(F)C(F)(F)C(F)(F)F [6:1 Fluorotelomer alcohol]
# Experimental: as §1
# Perfluorooctanoic acid = compound: O=C(O)C(F)(F)C(F)(F)C(F)(F)C(F)(F)C(F)(F)C(F)(F)C(F)(F)F [Perfluorooctanoic acid]
# Experimental: as §1
# [12] = compound: O=S(=O)(OCC(F)(F)F)C(F)(F)C(F)(F)C(F)(F)C(F)(F)F [2,2,2-Trifluoroethyl perfluorobutanesulfonate]
# Experimental: as §1
# [13] = compound: O=C(O)C(F)(F)C(F)(F)C(F)(F)C(F)(F)C(F)(F)C(F)(F)C(F)(F)F [Ammonium perfluorooctanoate]
# Experimental: as §1
Test System,LOEC (log10 uM) [1],LOEC (log10 uM) [2],LOEC (log10 uM) [3],LOEC (log10 uM) (Perfluoropinacol),LOEC (log10 uM) [4],LOEC (log10 uM) [5],LOEC (log10 uM) [6],LOEC (log10 uM) [7],LOEC (log10 uM) [8],LOEC (log10 uM) [9],LOEC (log10 uM) [10],LOEC (log10 uM) [11],LOEC (log10 uM) (Perfluorooctanoic acid),LOEC (log10 uM) [12],LOEC (log10 uM) [13]
BF4T PAI1 down,1.78,1.07 ± 0.32,1.3,1.3,1.3,1.3,,,,,,,,,
IMphg SRB.Mphg down,1.78,1.3,1.78,1.78,1.54 ± 0.34,1.07 ± 0.32,-0.222,,,,,,,,
BT xIL6 down,1.78,1.78,1.54 ± 0.34,,1.78,1.54 ± 0.34,,1.54 ± 0.34,0.845,,,,,,
BF4T MCP1 down,1.3,0.845,1.07 ± 0.32,1.78,1.07 ± 0.32,1.3,,,1.3,1.3,,,,,
IMphg VCAM1 down,1.78,1.3,1.54 ± 0.34,1.54 ± 0.34,1.78,1.3,,,1.3,,,,,,
hDFCGF MCP1 down,1.3,0.845,1.3,,1.54 ± 0.34,0.845,,,0.845,1.07 ± 0.32,,,,,
hDFCGF MIG down,1.3,0.845,1.3,1.78,1.78,1.07 ± 0.32,,1.54 ± 0.34,0.301,,1.78,,,,
BT xTNFa down,1.54 ± 0.34,1.3,1.3,1.78,1.78,1.3,,1.3,0.301,,,1.78,,,
IMphg ESelectin down,1.78,1.3,1.07 ± 0.32,1.3,1.54 ± 0.34,1.07 ± 0.32,,,1.3,,,,,,
BT PBMCCytotoxicity up,,,,,,,,,,,,,1.78,,
3C Proliferation down,1.3,1.3,0.845,0.845,1.04 ± 1,0.845,-0.96 ± 0.37,1.3,0.573 ± 0.39,,,1.78,,,
BF4T VCAM1 down,1.07 ± 0.32,1.3,1.3,1.78,1.3,1.3,,,0.845,,,,,,
CASM3C VCAM1 down,1.07 ± 0.32,1.3,1.54 ± 0.34,1.78,1.78,1.07 ± 0.32,,1.07 ± 0.32,0.845,,,,,,
MyoF VCAM1 down,1.3,0.573 ± 0.39,,1.78,1.78,1.07 ± 0.32,,1.78,0.845,,,,,,
SAg SRB down,1.3,1.78,1.3,1.3,,1.3,,,1.3,1.78,,,,,
IMphg IL10 down,1.07 ± 0.32,0.845,1.3,1.3,1.54 ± 0.34,1.3,,,1.3,1.07 ± 0.32,,,1.78,,
3C Thrombomodulin down,,,,,,1.78,,1.54 ± 0.34,,,,,,,

Test System,LOEC (log10 uM) [1],LOEC (log10 uM) [2],LOEC (log10 uM) [3],LOEC (log10 uM) (Perfluoropinacol),LOEC (log10 uM) [4],LOEC (log10 uM) [5],LOEC (log10 uM) [6],LOEC (log10 uM) [7],LOEC (log10 uM) [8],LOEC (log10 uM) [9],LOEC (log10 uM) [10],LOEC (log10 uM) [11],LOEC (log10 uM) (Perfluorooctanoic acid),LOEC (log10 uM) [12],LOEC (log10 uM) [13]
BF4T tPA down,1.07 ± 0.32,0.845,0.573 ± 0.39,,1.3,1.3,,,1.3,,,,1.31 ± 0.66,,
hDFCGF MCSF down,1.3,0.845,,1.3,1.78,0.845,,1.54 ± 0.34,0.573 ± 0.39,,,1.78,,,
BT Bcell Proliferation up,,,,,,,,,,,,,1.78,,
BE3C ITAC down,1.3,1.54 ± 0.34,1.3,1.78,1.3,1.78,,,1.78,,,,,,
3C SRB down,1.3,1.3,1.3,1.3,,1.3,-0.222,,1.3,1.78,,,,,
4H Pselectin up,,,,,,,,,,1.78,,,,,
LPS PGE2 up,,,,1.3,,,-0.722 ± 0.71,,,,,,,,
LPS TNFa down,1.78,1.3,,,,0.573 ± 0.39,,,1.3,,,,,1.78,
SAg CD40 down,1.54 ± 0.34,1.78,0.845,1.3,,1.54 ± 0.34,,1.78,1.07 ± 0.32,,,,,,
hDFCGF CollagenIII up,,,,,,,-0.699,,,,,,,,
BE3C HLADR down,1.3,1.54 ± 0.34,1.3,1.78,1.3,1.78,-0.46 ± 0.34,,1.3,,,,,,
IMphg IL8 up,1.78,,1.78,1.07 ± 0.32,,,,,,,,,1.78,,1.78
BT PBMCCytotoxicity down,1.54 ± 0.34,1.78,1.78,1.78,1.78,1.54 ± 0.34,-0.199 ± 0.71,1.3,0.845,,,,,,
LPS CD69 down,1.07 ± 0.32,1.78,,1.07 ± 0.32,,1.54 ± 0.34,,,1.3,,,,,,1.78
BF4T Eotaxin3 down,1.3,1.3,0.845,1.3,1.78,1.54 ± 0.34,,,1.78,,,,,,
BE3C MIG down,1.54 ± 0.34,1.78,1.3,1.78,1.78,1.78,,,1.78,,,1.78,,,
